Earlier results on two molecules are cited in PMC4726456 (Cell, 2014).

One series has as its system cellular microtubules. Particulars: ref Piperno et al., 1987; Takemura et al., 1992.
The subject of the next series is tubulin. The conditions noted are these: ref Mulder et al., 2009.

On to `CC(=O)O[C@H]1C(=O)[C@@]2(C)[C@H]([C@H](OC(=O)c3ccccc3)[C@]3(O)C[C@H](OC(=O)[C@H](O)[C@@H](NC(=O)c4ccccc4)c4ccccc4)C(C)=C1C3(C)C)[C@]1(OC(C)=O)CO[C@@H]1C[C@@H]2O` [taxol], for which the “Effect on microtubule acetylation levels in cells” value in the series on cellular microtubules is given as “increases acetylation levels”.

For the molecule Dolastatin-10, the “Induction of tubulin rings” value with tubulin is “induces tubulin rings by curving individual protofilaments”.
